Measured values published in patent EP0326331B1, “Substituted quinolines and cinnolines” (Dow AgroSciences LLC, priority 1988, dated 1989).
Like-named read-outs stand apart in the source and are kept apart here.

Columns and labels:
Format in all cases: in vivo
[1] = tested on: Erysiphe graminis tritici (powdery mildew); assay: Test 1 greenhouse foliar spray screen, powdery mildew on wheat; settings: for POWD MDEW: disease control rating, foliar spray on wheat, 400 ppm (+++ at 100 ppm)
[2] = tested on: Pyricularia oryzae (rice blast); assay: whole plant or invertebrate; settings: for RICE BLAST: disease control rating, foliar spray on rice, 400 ppm (+++ at 100 ppm)
[3] = tested on: Puccinia recondita tritici (leaf rust); assay: Test 1 greenhouse foliar spray screen, leaf rust on wheat; settings: for LEAF RUST: disease control rating, foliar spray on wheat, 400 ppm (+++ at 100 ppm)
[4] = tested on: Botrytis cinerea (gray mold); assay: Test 1 greenhouse foliar spray screen, gray mold on grape berries; settings: for GRAY MOLD: disease control rating, spray on grape berries, 400 ppm (+++ at 100 ppm)
[5] = tested on: Pseudoperonospora cubensis (downy mildew); assay: Test 1 greenhouse foliar spray screen, downy mildew on squash; settings: for DOWN MDEW: disease control rating, foliar spray on squash, 400 ppm (+++ at 100 ppm)
[6] = tested on: Cercospora beticola (leaf spot); assay: Test 1 greenhouse foliar spray screen, leaf spot on sugar beet; settings: for LEAF SPOT: disease control rating, foliar spray on sugar beet, 400 ppm (+++ at 100 ppm)
[7] = tested on: Venturia inaequalis (apple scab); assay: Test 1 greenhouse foliar spray screen, apple scab on apple seedling; settings: for APPL SCAB: disease control rating, foliar spray on apple seedling, 400 ppm (+++ at 100 ppm)
[8] = tested on: Septoria tritici (leaf blotch); assay: Test 1 greenhouse foliar spray screen, leaf blotch on wheat; settings: for LEAF BLOT: disease control rating, foliar spray on wheat, 400 ppm (+++ at 100 ppm)
[9] = tested on: southern armyworm (Spodopetra eridania Cramer); assay: Mite/insect screen, SAW; settings: Spodoptera eridania, percent mortality, read-out: SAW RESULTS %
Outline: (§1)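 Read-out: percent mortality after standard exposure periods. Test solutions were water dilutions of compound dissolved in acetone/alcohol (50:50) with emulsifier blends; leaves were sprayed to runoff on both surfaces and air-dried for one hour before exposure.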

[10] = tested on: Twospotted spider mites (Tetranychus urticae Koch); assay: Mite/insect screen, SM; settings: Tetranychus urticae, percent mortality, read-out: SM RESULTS %
Outline: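 Foliar spray to runoff (10 psi), 1 h drying; aqueous dilutions from acetone/alcohol emulsifier stock. Mortality (%) after standard exposure.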

[11] = tested on: melon aphids (Aphis gossypii Glover); assay: Mite/insect screen, MA; settings: Aphis gossypii, percent mortality, read-out: MA RESULTS %
Outline: as §1

corn rootworm = assay: Mite/insect screen, CRW; settings: percent mortality, read-out: CRW RESULTS %
Outline: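 Read-out: % mortality after standard exposure. Formulation: acetone/alcohol (50:50) with emulsifiers at 23 g and 13 g per liter, water-diluted to final test levels.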

[12] = foliar, rate 200 ppm, foliar spray on squash

| Compound | POWD MDEW [1] | RICE BLAST [2] | LEAF RUST [3] | GRAY MOLD [4] | DOWN MDEW [5] | LEAF SPOT [6] | APPL SCAB [7] | LEAF BLOT [8] | mortality at 200 ppm ([9]; SAW, SM & MA RATE 200 PPM) [%] | mortality at 200 ppm ([10]; SAW, SM & MA RATE 200 PPM) [%] | mortality at 200 ppm ([11]; SAW, SM & MA RATE 200 PPM) [%] | mortality at 12 ppm (corn rootworm; CRW RATE 12.00 PPM) [%] | mortality at 200 ppm [9, 12] [%] | mortality at 200 ppm [10, 12] [%] | mortality at 200 ppm [11, 12] [%] | mortality at 12 ppm (corn rootworm; CRW rate 12.00 ppm) [%] | further results |
| --- | --- | --- | --- | --- | --- | --- | --- | --- | --- | --- | --- | --- | --- | --- | --- | --- | --- |
| COc1cc2c(NCCc3ccccc3)cc(C)nc2cc1Cl [Example 54, 7-chloro-6-methoxy-2-methyl-N-(2-phenylethyl)-4-quinolinamine] | - (0-19% control at 400 ppm) | ++ (90-100% control at 400 ppm) | + (20-89% control at 400 ppm) | - (0-19% control at 400 ppm) | +++ (90-100% control at 100 ppm) | +++ (90-100% control at 100 ppm) | - (0-19% control at 400 ppm) | + (20-89% control at 400 ppm) | 0 | 0 | 0 | 0 |  |  |  |  |  |
| Fc1cc(F)c2nccc(NCCc3ccc(Br)cc3)c2c1 [Example 12, N-[2-(4-bromophenyl)ethyl]-6,8-difluoro-4-quinolinamine] | + (20-89% control at 400 ppm) | ++ (90-100% control at 400 ppm) | +++ (90-100% control at 100 ppm) | - (0-19% control at 400 ppm) | ++ (90-100% control at 400 ppm) | +++ (90-100% control at 100 ppm) | - (0-19% control at 400 ppm) | ++ (90-100% control at 400 ppm) | 0 | 0 | 0 | 0 |  |  |  |  | mortality at 400 ppm ([9]; SAW, SM & MA RATE 400 PPM): 100%; mortality at 400 ppm ([10]; SAW, SM & MA RATE 400 PPM): 0%; mortality at 400 ppm ([11]; SAW, SM & MA RATE 400 PPM): 0%; mortality at 24 ppm (corn rootworm; CRW RATE 24.00 PPM): 40% |
| CC(Cc1cccs1)Nc1ccnc2ccccc12 (stereo not shown) [Example 171, N-[1-methyl-2-(2-thienyl)ethyl]-4-quinolinamine] | - (0-19% control at 400 ppm) | + (20-89% control at 400 ppm) | + (20-89% control at 400 ppm) | - (0-19% control at 400 ppm) | + (20-89% control at 400 ppm) | + (20-89% control at 400 ppm) | - (0-19% control at 400 ppm) | + (20-89% control at 400 ppm) |  |  |  |  | 0 | 0 | 0 | 0 |  |
| c1csc(CCOc2ccnc3ccccc23)c1 [Example 245, 4-[2-(2-thienyl)ethoxy]quinoline] |  |  |  |  |  |  |  |  |  |  |  |  | 0 | 0 | 0 | 0 | pest or weed control at 400 ppm ([1]; Blumeria graminis, foliar, Test 1, foliar spray on wheat, disease control rating at 400 ppm / 100 ppm, read-out: POWD MDEW): 20 to 89%; pest or weed control at 400 ppm ([2]; Pyricularia oryzae, foliar, read-out: RICE BLAST, Test 1, foliar spray on rice, disease control rating at 400 ppm / 100 ppm): 90 to 100%; pest or weed control at 400 ppm ([3]; Puccinia recondita, foliar, Test 1, foliar spray on wheat, disease control rating at 400 ppm / 100 ppm): 90 to 100%; pest or weed control at 400 ppm ([4]; Botrytis cinerea, foliar, Test 1, spray on grape berries, disease control rating at 400 ppm / 100 ppm): 0 to 19%; pest or weed control at 400 ppm ([5]; Pseudoperonospora cubensis, foliar, Test 1, foliar spray on squash, disease control rating at 400 ppm / 100 ppm, read-out: DOWN MDEW): 90 to 100%; pest or weed control at 400 ppm ([6]; Cercospora beticola, Test 1, foliar spray on sugar beet, disease control rating at 400 ppm / 100 ppm): 0 to 19%; pest or weed control at 400 ppm ([7]; Venturia inaequalis, Test 1, foliar spray on apple seedling, disease control rating at 400 ppm / 100 ppm, read-out: APPL SCAB): 0 to 19%; pest or weed control at 400 ppm ([8]; Zymoseptoria tritici, Test 1, foliar spray on wheat, disease control rating at 400 ppm / 100 ppm, read-out: LEAF BLOT): 0 to 19% |
